In one assay the test system is Toledo cells. The experiment in a line: Cell proliferation assay (MTS), Toledo cells. The note with it: Homo sapiens, 72 h. The assay is classed as cell-based. As for the experimental part:
MTS testing kit was purchased from Promega (Madison, WI, USA). The RPMI-1640, Fetal bovine serum and Penicillin-Streptomycin were purchased from BI (Biological Industries, Beit Haemek, Israel). Dimethyl sulfoxide (DMSO) was purchased from Sigma (St. Louis., MO, USA). Toledo (ATCC catalog #: CRL-2631) cells were cultured in RPMI-1640 supplemented with Penicillin-Streptomycin and 10% FBS.
To investigate whether a compound is able to inhibit the activity of BCL-2 in cells, a mechanism-based assay using Toledo lines was developed. In this assay, the inhibition of BCL-2 was reflected by the inhibition of cell proliferation of Toledo cells. Cells were plated into 96-well plates at the optimized cell density of 30000 cells/well. Plates were incubated at 37° C., with 5% CO2 for 4 h. Compounds were serially diluted and added to the plates with the final concentrations of 10000, 3333.3, 1111.1, 370.4, 123.5, 41.2, 13.7, 4.6 and 1.5 nM. Plates were incubated at 37° C., with 5% CO2 for 72 h. 20 μl MTS was added into each well and the plates were incubated at 37° C., with 5% CO2 for exactly 2 h. The absorbance was measured by a microplate reader at 490 nm. IC50 was calculated using GraphPad Prism 5.0 software.

The test system of the next assay is RS4;11-BCL-2 G101V cells. The experiment in a line: Cell proliferation assay (MTS), RS4;11-BCL-2 G101V engineered cells. The assay is classed as cell-based. The note with it: Homo sapiens, 120 h, read-out: RS4, 11 BCL2-G101V IC50. From the text:
MTS testing kit was purchased from Promega (Madison, WI, USA). The RPMI-1640, Fetal bovine serum and Penicillin-Streptomycin were purchased from BI (Biological Industries, Beit Haemek, Israel). Puromycin was purchased from Beyotime (shanghai, China). Dimethyl sulfoxide (DMSO) was purchased from Sigma (St. Louis., MO, USA). RS4;11-BCL-2 G101V (Cobioer Lot. #: CBD2021063013P4), RS4;11-BCL-2 D103E (Cobioer Lot. #: CBD2021063013P4), RS4;11-BCL-2 D103Y (Cobioer Lot. #: CBD2022012101P4) and RS4;11-BCL-2 F104L (Cobioer Lot. #: CBD2021063014P4) cells were cultured in RPMI1640 supplemented with 1 ug/mL puromycin, 100 U/mL Penicillin-Streptomycin and 10% FBS.
To investigate whether a compound is able to inhibit the activity of BCL-2 mutation in cells, a mechanism-based assay using engineered cell lines stably overexpressing BCL-2 mutation (RS4;11-BCL-2 G101V, RS4;11-BCL-2 D103E, RS4;11-BCL-2 D103Y, and RS4;11-BCL-2 F104L) was developed. In this assay, the inhibition of BCL-2 mutation was reflected by the inhibition of cell proliferation of engineered RS4;11 cells. Cells were plated into 96-well plates at optimized cell density (RS4;11-BCL-2 G101V: 5000 cells/well; RS4;11-BCL-2 D103E: 7500 cells/well; RS4;11-BCL-2 D103Y: 7500 cells/well; RS4;11-BCL-2 F104L: 5000 cells/well). Plates were incubated at 37° C., with 5% CO2 for 4 h (RS4;11-BCL-2 G101V, RS4;11-BCL-2 F104L) and 24 h (RS4;11-BCL-2 D103E, RS4;11-BCL-2 D103Y), respectively. Compounds were serially diluted and added to the plates with the final concentrations of 10000, 3333.3, 1111.1, 370.4, 123.5, 41.2, 13.7, 4.6 and 1.5 nM. Plates were incubated at 37° C., with 5% CO2 for 120 h (RS4; 11-BCL-2 G101V, RS4; 11-BCL-2 F104L) and 72 h (RS4;11-BCL-2 D103E, RS4;11-BCL-2 D103Y), respectively. 20 μl MTS was added into each well and the plates were incubated at 37° C., with 5% CO2 exactly for 2 h. The absorbance was measured by a microplate reader at 490 nm. IC50 values were calculated using GraphPad Prism 8.0 software.

Regarding `CC(C)c1ccccc1[C@@H]1CN(Cc2ccc(F)c(F)c2)CCN1C1CC2(CCN(c3ccc(C(=O)NS(=O)(=O)c4cnc(NC[C@H]5CC[C@](C)(O)CC5)c([N+](=O)[O-])c4)c(Oc4cnc5[nH]cc(F)c5c4)c3)CC2)C1` [Example 72, 4-(2-((R)-4-(3,4-difluorobenzyl)-2-(2-isopropylphenyl)piperazin-1-yl)-7-azaspiro[3.5]nonan-7-yl)-2-((3-fluoro-1H-pyrrolo[2,3-b]pyridin-5-yl)oxy)-N-((6-((((1r,4r)-4-hydroxy-4-methylcyclohexyl)methyl)amino)-5-nitropyridin-3-yl)sulfonyl)benzamide], the IC50 in the assay with Toledo cells and in the assay with RS4;11-BCL-2 G101V cells was 1 nM in each case.
`COc1nc2[nH]cc(F)c2cc1Oc1cc(N2CCC3(CC2)CC(N2CCN(Cc4cc(F)c(OC)c(F)c4)C[C@H]2c2ccccc2C(C)C)C3)ccc1C(=O)NS(=O)(=O)c1cnc(NC[C@H]2CC[C@](C)(O)CC2)c([N+](=O)[O-])c1` [Example 107, 4-(2-((R)-4-(3,5-difluoro-4-methoxybenzyl)-2-(2-isopropylphenyl)piperazin-1-yl)-7-azaspiro[3.5]nonan-7-yl)-2-((3-fluoro-6-methoxy-1H-pyrrolo[2,3-b]pyridin-5-yl)oxy)-N-((6-((((1r,4r)-4-hydroxy-4-methylcyclohexyl)methyl)amino)-5-nitropyridin-3-yl)sulfonyl)benzamide]: the IC50 with Toledo cells and in the assay on RS4;11-BCL-2 G101V cells was 1 nM each time.
`CCOc1nc2[nH]cc(F)c2cc1Oc1cc(N2CCC3(CC2)CC(N2CCN(CCOC)C[C@H]2c2ccccc2C(C)C)C3)ccc1C(=O)NS(=O)(=O)c1cnc(NC[C@H]2CC[C@](C)(O)CC2)c([N+](=O)[O-])c1` [Example 130, 2-((6-ethoxy-3-fluoro-1H-pyrrolo[2,3-b]pyridin-5-yl)oxy)-N-((6-((((1r,4r)-4-hydroxy-4-methylcyclohexyl)methyl)amino)-5-nitropyridin-3-yl)sulfonyl)-4-(2-((R)-2-(2-isopropylphenyl)-4-(2-methoxyethyl)piperazin-1-yl)-7-azaspiro[3.5]nonan-7-yl)benzamide]: the IC50 with Toledo cells and with RS4;11-BCL-2 G101V cells was 1 nM each time.
Regarding `CCOc1nc2[nH]cc(F)c2cc1Oc1cc(N2CCC3(CC2)CC(N2CCN(C4COC4)C[C@H]2c2ccccc2C(C)C)C3)ccc1C(=O)NS(=O)(=O)c1cnc(NC[C@H]2CC[C@](C)(O)CC2)c([N+](=O)[O-])c1` [Example 132, 2-((6-ethoxy-3-fluoro-1H-pyrrolo[2,3-b]pyridin-5-yl)oxy)-N-((6-((((1r,4r)-4-hydroxy-4-methylcyclohexyl)methyl)amino)-5-nitropyridin-3-yl)sulfonyl)-4-(2-((R)-2-(2-isopropylphenyl)-4-(oxetan-3-yl)piperazin-1-yl)-7-azaspiro[3.5]nonan-7-yl)benzamide], the IC50 with Toledo cells and with RS4;11-BCL-2 G101V cells was 1 nM each time.
As to `CCOc1nc2[nH]cc(F)c2cc1Oc1cc(N2CCC3(CC2)CC(N2CCN(Cc4cnn(C5CC5)c4)C[C@H]2c2ccccc2C(C)C)C3)ccc1C(=O)NS(=O)(=O)c1cnc(NC[C@H]2CC[C@](C)(O)CC2)c([N+](=O)[O-])c1` [Example 134, 4-(2-((R)-4-((1-cyclopropyl-1H-pyrazol-4-yl)methyl)-2-(2-isopropylphenyl)piperazin-1-yl)-7-azaspiro[3.5]nonan-7-yl)-2-((6-ethoxy-3-fluoro-1H-pyrrolo[2,3-b]pyridin-5-yl)oxy)-N-((6-((((1r,4r)-4-hydroxy-4-methylcyclohexyl)methyl)amino)-5-nitropyridin-3-yl)sulfonyl)benzamide], the IC50 in the assay with Toledo cells and in the assay on RS4;11-BCL-2 G101V cells was 1 nM throughout.
With `CCOc1nc2[nH]cc(F)c2cc1Oc1cc(N2CCC3(CC2)CC(N2CCN(C)C[C@H]2c2ccccc2C(C)C)C3)ccc1C(=O)NS(=O)(=O)c1cnc(NC[C@H]2CC[C@](C)(O)CC2)c([N+](=O)[O-])c1` [Example 138, 2-((6-ethoxy-3-fluoro-1H-pyrrolo[2,3-b]pyridin-5-yl)oxy)-N-((6-((((1r,4r)-4-hydroxy-4-methylcyclohexyl)methyl)amino)-5-nitropyridin-3-yl)sulfonyl)-4-(2-((R)-2-(2-isopropylphenyl)-4-methylpiperazin-1-yl)-7-azaspiro[3.5]nonan-7-yl)benzamide], the IC50 in the assay with Toledo cells and in the assay with RS4;11-BCL-2 G101V cells was 1 nM each time.
As to `COc1nc2[nH]cc(F)c2cc1Oc1cc(N2CCC3(CC2)CC(N2CCN(Cc4ccc5c(c4)OCCO5)C[C@H]2c2ccccc2C(C)C)C3)ccc1C(=O)NS(=O)(=O)c1cnc(NC[C@H]2CC[C@](C)(O)CC2)c([N+](=O)[O-])c1` [Example 321, 4-(2-((R)-4-((2,3-dihydrobenzo[b][1,4]dioxin-6-yl)methyl)-2-(2-isopropylphenyl)piperazin-1-yl)-7-azaspiro[3.5]nonan-7-yl)-2-((3-fluoro-6-methoxy-1H-pyrrolo[2,3-b]pyridin-5-yl)oxy)-N-((6-((((1r,4r)-4-hydroxy-4-methylcyclohexyl)methyl)amino)-5-nitropyridin-3-yl)sulfonyl)benzamide], the IC50 (commonly the midpoint of a concentration-inhibition curve) in the assay with Toledo cells is 1 nM.
Same read-out and setting: for `CC(C)c1ccccc1[C@@H]1CN(Cc2ccc3c(c2)OCCO3)CCN1C1CC2(CCN(c3ccc(C(=O)NS(=O)(=O)c4cnc(NC[C@H]5CC[C@](C)(O)CC5)c([N+](=O)[O-])c4)c(Oc4cnc5[nH]cc(F)c5c4)c3)CC2)C1` [Example 322, 4-(2-((R)-4-((2,3-dihydrobenzo[b][1,4]dioxin-6-yl)methyl)-2-(2-isopropylphenyl)piperazin-1-yl)-7-azaspiro[3.5]nonan-7-yl)-2-((3-fluoro-1H-pyrrolo[2,3-b]pyridin-5-yl)oxy)-N-((6-((((1r,4r)-4-hydroxy-4-methylcyclohexyl)methyl)amino)-5-nitropyridin-3-yl)sulfonyl)benzamide] the value was 1 nM.
Still for that read-out and setting: for `CC(C)c1ccccc1[C@@H]1CN(Cc2ccc(S(C)(=N)=O)cc2)CCN1C1CC2(CCN(c3ccc(C(=O)NS(=O)(=O)c4cnc(NC[C@H]5CC[C@](C)(O)CC5)c([N+](=O)[O-])c4)c(Oc4cnc5[nH]cc(F)c5c4)c3)CC2)C1` (stereo partly drawn) [Example 337, 2-((3-fluoro-1H-pyrrolo[2,3-b]pyridin-5-yl)oxy)-N-((6-((((1r,4r)-4-hydroxy-4-methylcyclohexyl)methyl)amino)-5-nitropyridin-3-yl)sulfonyl)-4-(2-((2R)-2-(2-isopropylphenyl)-4-(4-(S-methylsulfonimidoyl)benzyl)piperazin-1-yl)-7-azaspiro[3.5]nonan-7-yl)benzamide] the value was 1 nM; for `CC(C)c1ccccc1[C@@H]1CN(Cc2ccc(OC(F)F)cc2)CCN1C1CC2(CCN(c3ccc(C(=O)NS(=O)(=O)c4cnc(NC[C@H]5CC[C@](C)(O)CC5)c([N+](=O)[O-])c4)c(Oc4cnc5[nH]cc(F)c5c4)c3)CC2)C1` [Example 343, 4-(2-((R)-4-(4-(difluoromethoxy)benzyl)-2-(2-isopropylphenyl)piperazin-1-yl)-7-azaspiro[3.5]nonan-7-yl)-2-((3-fluoro-1H-pyrrolo[2,3-b]pyridin-5-yl)oxy)-N-((6-((((1r,4r)-4-hydroxy-4-methylcyclohexyl)methyl)amino)-5-nitropyridin-3-yl)sulfonyl)benzamide], 1 nM.

Source of the values: US20250122191A1, “COMPOUNDS AS BCL-2 INHIBITORS” (Fochon Biosciences, Ltd, priority 2021, published 2025).
